Results published in ChEMBL document CHEMBL1134109, “Biological evaluation of hepatitis C virus helicase inhibitors” (Bioorg Med Chem Lett, 2001).

Target: NS3 (Hepatitis C virus) (UniProt A3EZJ3)
Experiment: Inhibitory activity against hepatitis C virus helicase at 25 ug/mL
Conditions: Hepacivirus hominis

NS3 (Hepatitis C virus), sequence (A3EZJ3 as listed by the source): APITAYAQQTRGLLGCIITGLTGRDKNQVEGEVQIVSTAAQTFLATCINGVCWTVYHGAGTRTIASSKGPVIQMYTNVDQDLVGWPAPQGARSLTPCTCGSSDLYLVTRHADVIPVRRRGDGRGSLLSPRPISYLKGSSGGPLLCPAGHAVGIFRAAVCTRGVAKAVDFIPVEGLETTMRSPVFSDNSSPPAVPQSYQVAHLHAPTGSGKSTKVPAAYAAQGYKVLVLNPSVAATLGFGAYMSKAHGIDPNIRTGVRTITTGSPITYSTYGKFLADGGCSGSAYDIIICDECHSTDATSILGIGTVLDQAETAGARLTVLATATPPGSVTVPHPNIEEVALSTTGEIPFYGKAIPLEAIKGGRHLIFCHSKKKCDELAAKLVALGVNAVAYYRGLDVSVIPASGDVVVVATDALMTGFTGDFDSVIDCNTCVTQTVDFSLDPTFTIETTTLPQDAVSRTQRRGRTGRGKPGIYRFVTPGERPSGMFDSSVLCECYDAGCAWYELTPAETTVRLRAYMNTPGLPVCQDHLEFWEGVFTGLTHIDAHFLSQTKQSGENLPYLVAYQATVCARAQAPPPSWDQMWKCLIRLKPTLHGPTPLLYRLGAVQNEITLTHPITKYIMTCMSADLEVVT

| Compound | inhibition |
| --- | --- |
| O=C(CCC(=O)Nc1nc2ccccc2[nH]1)Nc1nc2ccccc2[nH]1 | 6% |
| O=C(CCCCC(=O)Nc1nccs1)Nc1nccs1 | 10% |
| O=C(CCCCCCCC(=O)Nc1nc2ccccc2[nH]1)Nc1nc2ccccc2[nH]1 | 6% |
| O=C(CCCCCCC(=O)Nc1nc2ccccc2[nH]1)Nc1nc2ccccc2[nH]1 | 6% |
| O=C(CCCCC(=O)Nc1nc2ccccc2[nH]1)Nc1nc2ccccc2[nH]1 | 6% |
| Cc1ccc2nc(-c3ccc(NC(=O)CCC(=O)Nc4ccc(-c5nc6ccc(C)cc6s5)cc4)cc3)sc2c1 | 14% |

Second part, the compound after the results:

| inhibition | Compound |
| --- | --- |
| 75% | O=C(CCCCCCC(=O)Nc1ccc(-c2nc3ccccc3[nH]2)cc1)Nc1ccc(-c2nc3ccccc3[nH]2)cc1 |
| 75% | O=C(Nc1ccc(-c2nc3ccccc3[nH]2)cc1)c1ccc(C(=O)Nc2ccc(-c3nc4ccccc4[nH]3)cc2)cc1 |
| 20% | O=C(NCCCCNC(=O)Nc1ccc(-c2nc3ccccc3[nH]2)cc1)Nc1ccc(-c2nc3ccccc3[nH]2)cc1 |
| 75% | O=C(CCCCC(=O)Nc1ccc(-c2nc3ccccc3[nH]2)cc1)Nc1ccc(-c2nc3ccccc3[nH]2)cc1 |
| 28% | O=C(NCCCCCCNC(=O)Nc1ccc(-c2nc3ccccc3[nH]2)cc1)Nc1ccc(-c2nc3ccccc3[nH]2)cc1 |
| 75% | O=C(/C=C/C(=O)Nc1ccc(-c2nc3ccccc3[nH]2)cc1)Nc1ccc(-c2nc3ccccc3[nH]2)cc1 |
